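Protocol summary: plate cells (96-well), add compound at 5 concentrations, incubate 48 h, interpolate endpoints linearly. GI50 is the concentration that inhibits growth by half.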 Active and inactive are the calls of the source. No stated cut-off is given here; in the data, active = GI50 up to about 1.1 µM and inactive = higher.
What was measured:
Experiment in all cases: DTP human tumour cell line panel, 48 h
KM12 = tested on: KM12
OVCAR-5 = tested on: OVCAR-5
ACHN = tested on: ACHN
HT-29 = tested on: HT-29
HCT-15 = tested on: HCT-15
HCT-116 = tested on: HCT-116
SF-539 = tested on: SF-539
SNB-19 = tested on: SNB-19
OVCAR-4 = tested on: OVCAR-4
U-251 = tested on: U-251
HOP-92 = tested on: HOP-92
HOP-62 = tested on: HOP-62
MCF7 = tested on: MCF7
SK-MEL-2 = tested on: SK-MEL-2
EKVX = tested on: EKVX
NCI/ADR-RES = tested on: NCI/ADR-RES
OVCAR-3 = tested on: OVCAR-3
IGROV-1 = tested on: IGROV-1
TK-10 = tested on: TK-10
LOX IMVI = tested on: LOX IMVI

Compound	GI50 (KM12)	GI50 (OVCAR-5)	GI50 (ACHN)	GI50 (HT-29)	GI50 (HCT-15)	GI50 (HCT-116)	GI50 (SF-539)	GI50 (SNB-19)	GI50 (OVCAR-4)	GI50 (U-251)	GI50 (HOP-92)	GI50 (HOP-62)	GI50 (MCF7)	GI50 (SK-MEL-2)	GI50 (EKVX)	GI50 (NCI/ADR-RES)	GI50 (OVCAR-3)	GI50 (IGROV-1)	GI50 (TK-10)	GI50 (LOX IMVI)
NS(=O)(=O)c1ccc(NCc2cnc3ccccc3c2)cc1	> 100 µM (inactive)	> 100 µM (inactive)	> 100 µM (inactive)	> 100 µM (inactive)	> 100 µM	> 100 µM (inactive)	30.5 µM (inactive)	> 100 µM (inactive)	> 100 µM (inactive)	> 100 µM (inactive)	49.8 µM (inactive)	> 100 µM (inactive)	> 100 µM (inactive)	> 100 µM (inactive)	> 100 µM (inactive)	83.8 µM (inactive)	> 100 µM (inactive)	49.4 µM (inactive)	> 100 µM (inactive)	–
COc1ccc2c(c1O)[C@@]13CCCC=C1[C@@H](C2)[N+](C)(C)CC3	> 100 µM (inactive)	> 100 µM (inactive)	> 100 µM (inactive)	> 100 µM (inactive)	> 100 µM	> 100 µM (inactive)	–	> 100 µM (inactive)	> 100 µM (inactive)	> 100 µM (inactive)	> 100 µM (inactive)	> 100 µM (inactive)	> 100 µM (inactive)	> 100 µM (inactive)	> 100 µM (inactive)	> 100 µM (inactive)	37.2 µM (inactive)	> 100 µM (inactive)	> 100 µM (inactive)	> 100 µM (inactive)
CCOC(=O)Cc1c(C)c2ccc(OC(C)=O)c(OC(C)=O)c2oc1=O	32.7 µM (inactive)	53.6 µM (inactive)	33.8 µM (inactive)	29.6 µM (inactive)	18.7 µM	34 µM (inactive)	–	13.3 µM (inactive)	16.5 µM (inactive)	23.1 µM (inactive)	17.5 µM (inactive)	40.6 µM (inactive)	24.6 µM (inactive)	49.5 µM (inactive)	23.1 µM (inactive)	22 µM (inactive)	20.1 µM (inactive)	15.3 µM (inactive)	20.9 µM (inactive)	25.3 µM (inactive)
O=c1c2ccccc2nc(Cc2nc(-c3ccc(Cl)cc3)cs2)n1-c1ccc(Cl)cc1	41.8 µM (inactive)	27.1 µM (inactive)	37 µM (inactive)	85.7 µM (inactive)	31.5 µM	37.2 µM (inactive)	–	> 100 µM (inactive)	76.2 µM (inactive)	54.5 µM (inactive)	9.64 µM (inactive)	> 100 µM (inactive)	46.9 µM (inactive)	28.1 µM (inactive)	64.6 µM (inactive)	57.5 µM (inactive)	94.2 µM (inactive)	45.2 µM (inactive)	> 100 µM (inactive)	50.2 µM (inactive)
O=C(NCc1ccc(Cl)c(Cl)c1)c1nc2ccccc2nc1NCc1ccc(Cl)c(Cl)c1	> 100 µM (inactive)	> 100 µM (inactive)	> 100 µM (inactive)	> 100 µM (inactive)	> 100 µM	> 100 µM (inactive)	> 100 µM (inactive)	> 100 µM (inactive)	–	> 100 µM (inactive)	> 100 µM (inactive)	83.6 µM (inactive)	> 100 µM (inactive)	> 100 µM (inactive)	> 100 µM (inactive)	> 100 µM (inactive)	> 100 µM (inactive)	> 100 µM (inactive)	> 100 µM (inactive)	> 100 µM (inactive)
C=C(C)C(=O)O[C@H]1CC2=CC(CC(C)=C[C@H]3OC(=O)C(=C)C13)OC2=O (some centres undefined)	20.3 µM (inactive)	33.7 µM (inactive)	13.2 µM (inactive)	17 µM (inactive)	10.8 µM	10.8 µM (inactive)	29.7 µM (inactive)	> 100 µM (inactive)	34.8 µM (inactive)	> 100 µM (inactive)	16.4 µM (inactive)	–	13.1 µM (inactive)	22.1 µM (inactive)	20.6 µM (inactive)	38.3 µM (inactive)	24.7 µM (inactive)	33 µM (inactive)	8.02 µM (inactive)	21 µM (inactive)
COc1cc(NC(C)=O)ccc1C(=O)NN1C(=O)C(Cl)C1c1ccco1 (centres undefined)	> 100 µM (inactive)	> 100 µM (inactive)	86.3 µM (inactive)	> 100 µM (inactive)	> 100 µM	> 100 µM (inactive)	> 100 µM (inactive)	> 100 µM (inactive)	> 100 µM (inactive)	–	> 100 µM (inactive)	–	58.3 µM (inactive)	> 100 µM (inactive)	> 100 µM (inactive)	> 100 µM (inactive)	> 100 µM (inactive)	80.5 µM (inactive)	–	75.2 µM (inactive)
COc1cc(C2SC(=N)Nc3c2c(C)nn3C(=O)c2ccccc2O)ccc1O (centres undefined)	> 2.13 µM (inactive)	> 5.53 µM (inactive)	1.21 µM (inactive)	> 6.38 µM (inactive)	> 2.31 µM	–	–	> 2.39 µM (inactive)	> 2.1 µM (inactive)	1.74 µM (inactive)	> 10 µM (inactive)	> 2.61 µM (inactive)	> 2.01 µM (inactive)	> 2.86 µM (inactive)	> 2.63 µM (inactive)	> 2.38 µM (inactive)	> 2.93 µM (inactive)	1.61 µM (inactive)	> 2.96 µM (inactive)	1.47 µM (inactive)
COc1ccc2nc3cc(Cl)ccc3c(NCCNCCCNC(=O)c3cc(-c4ccccc4)nc4ccccc34)c2c1	70.8 µM (inactive)	> 100 µM (inactive)	> 100 µM (inactive)	22.6 µM (inactive)	> 100 µM	> 100 µM (inactive)	> 100 µM (inactive)	> 100 µM (inactive)	> 100 µM (inactive)	> 100 µM (inactive)	> 100 µM (inactive)	> 100 µM (inactive)	> 100 µM (inactive)	–	> 100 µM (inactive)	> 100 µM (inactive)	54.7 µM (inactive)	> 100 µM (inactive)	> 100 µM (inactive)	82.6 µM (inactive)
COC(=O)[C@]12C3=C(O)C(=O)C[C@H]1OC[C@H]2C=CC3	> 100 µM (inactive)	> 100 µM (inactive)	> 100 µM (inactive)	–	> 100 µM	> 10 µM (inactive)	–	> 100 µM (inactive)	> 100 µM (inactive)	> 100 µM (inactive)	> 100 µM (inactive)	> 100 µM (inactive)	> 100 µM (inactive)	> 100 µM (inactive)	> 100 µM (inactive)	> 100 µM (inactive)	> 100 µM (inactive)	> 100 µM (inactive)	> 100 µM (inactive)	> 100 µM (inactive)
COC(=O)C(=CNC(N)=O)C(=O)OC	> 100 µM (inactive)	> 100 µM (inactive)	> 100 µM (inactive)	> 100 µM (inactive)	> 100 µM	> 100 µM (inactive)	> 100 µM (inactive)	> 100 µM (inactive)	–	–	> 100 µM (inactive)	> 100 µM (inactive)	> 100 µM (inactive)	> 100 µM (inactive)	> 100 µM (inactive)	> 100 µM (inactive)	> 100 µM (inactive)	> 100 µM (inactive)	> 100 µM (inactive)	> 100 µM (inactive)

Reference: ChEMBL document CHEMBL1201862, “PubChem BioAssay data set” (2004)
